# Results reported in US10189839B2, “Tricyclic imidazole compounds as inhibitors of tryptophan hydroxylase” (ACTELION PHARMACEUTICALS LTD, priority 2013, dated 2019).
# Biological target: T1, full length human TPH1 (Homo sapiens, UniProt P17752)
# T1 construct: To generate the enzyme, full length human TPH1 is cloned into the plasmid pET20b(+); made in house; host or cells: E. coli
# T1 sequence (P17752 1-444): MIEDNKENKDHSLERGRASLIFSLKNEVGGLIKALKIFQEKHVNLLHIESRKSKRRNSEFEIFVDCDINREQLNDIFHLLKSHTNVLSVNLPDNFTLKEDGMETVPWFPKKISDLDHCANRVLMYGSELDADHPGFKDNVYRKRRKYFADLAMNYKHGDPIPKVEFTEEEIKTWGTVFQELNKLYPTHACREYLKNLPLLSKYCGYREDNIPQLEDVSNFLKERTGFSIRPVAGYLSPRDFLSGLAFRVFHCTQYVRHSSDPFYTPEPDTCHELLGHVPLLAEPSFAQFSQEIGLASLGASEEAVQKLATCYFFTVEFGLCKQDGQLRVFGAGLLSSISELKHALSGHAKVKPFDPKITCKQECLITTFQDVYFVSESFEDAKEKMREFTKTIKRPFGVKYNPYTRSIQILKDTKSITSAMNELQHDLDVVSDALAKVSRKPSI
# Test: Biochemical in vitro assay using fluorescence readout (TPH1 enzyme activity)
# Procedure, shortened: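 IC50 (mean of repeats) derived from 5-hydroxy-L-tryptophan fluorescence at 540 nm (300 nm excitation) relative to vehicle, after perchloric acid stop. Reaction: 60 min, 15° C., pH 7.6 Tris-HCl, 40 μM L-tryptophan, 100 μM 6-methyltetrahydropterine, DTT, catalase, with 40-80 nM purified full-length human TPH1 from E. coli.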
# [1] = Table 1, mean where determined several times
SMILES,IC50 [1],IC50 (Table 2)
"CN(C)c1ncc(C2c3c(nc4n3CCNC4)CCN2C(=O)COc2ccc(N3CCOCC3)nc2Cl)s1 (stereo not drawn) [Example 5.6.1, 2-((2-chloro-6-morpholinopyridin-3-yl)oxy)-1-(1-(2-(dimethylamino)thiazol-5-yl)-3,4,6,7,8,9-hexahydropyrido[4′,3′:4,5]imidazo[1,2-a]pyrazin-2(1H)-yl)ethanone]",415 nM,
"CC(=O)N1CCn2c(nc3c2C(c2cnc(N(C)C)s2)N(C(=O)COc2ccc(N4CCOCC4)nc2Cl)CC3)C1 (stereo not drawn) [Example 5.6.2, 1-(7-acetyl-1-(2-(dimethylamino)thiazol-5-yl)-3,4,6,7,8,9-hexahydropyrido[4′,3′:4,5]imidazo[1,2-a]pyrazin-2(1H)-yl)-2-((2-chloro-6-morpholinopyridin-3-yl)oxy)ethanone]",37 nM,
"CC(=O)N1CCn2c(nc3c2C(c2sc(C(=O)N(C)C)cc2F)N(C(=O)COc2ccc(C(=O)N(C)C)nc2Cl)CC3)C1 (stereo not drawn) [Example 5.7.1, 5-(2-(7-acetyl-1-(5-(dimethylcarbamoyl)-3-fluorothiophen-2-yl)-3,4,6,7,8,9-hexahydropyrido[4′,3′:4,5]imidazo[1,2-a]pyrazin-2(1H)-yl)-2-oxoethoxy)-6-chloro-N,N-dimethylpicolinamide]",27 nM,
"CC(=O)N1CCn2c(nc3c2C(c2sc(C(=O)N(C)C)cc2F)N(C(=O)COc2ccc(N4CCOCC4)nc2Cl)CC3)C1 (stereo not drawn) [Example 5.7.2, 5-(7-acetyl-2-(2-((2-chloro-6-morpholinopyridin-3-yl)oxy)acetyl)-1,2,3,4,6,7,8,9-octahydropyrido[4′,3′:4,5]imidazo[1,2-a]pyrazin-1-yl)-4-fluoro-N,N-dimethylthiophene-2-carboxamide]",6 nM,
"CC(=O)N1CCn2c(nc3c2C(c2ncc(C)cc2F)N(C(=O)COc2ccc(N4CCOCC4)nc2Cl)CC3)C1 (stereo not drawn) [Example 5.8.1, 1-(7-acetyl-1-(3-fluoro-5-methylpyridin-2-yl)-3,4,6,7,8,9-hexahydropyrido[4′,3′:4,5]imidazo[1,2-a]pyrazin-2(1H)-yl)-2-((2-chloro-6-morpholinopyridin-3-yl)oxy)ethanone]",11 nM,
"CC(=O)N1CCn2c(nc3c2C(c2ncc(C)cc2F)N(C(=O)COc2ccc(N4CC(F)(F)C4)nc2Cl)CC3)C1 (stereo not drawn) [Example 5.8.2, 1-(7-acetyl-1-(3-fluoro-5-methylpyridin-2-yl)-3,4,6,7,8,9-hexahydropyrido[4′,3′:4,5]imidazo[1,2-a]pyrazin-2(1H)-yl)-2-((2-chloro-6-(3,3-difluoroazetidin-1-yl)pyridin-3-yl)oxy)ethanone]",51 nM,
"CC(=O)N1CCn2c(nc3c2C(c2ncc(Cl)cc2F)N(C(=O)COc2ccc(N4CCOCC4)nc2Cl)CC3)C1 (stereo not drawn) [Example 5.9.1, 1-(7-acetyl-1-(5-chloro-3-fluoropyridin-2-yl)-3,4,6,7,8,9-hexahydropyrido[4′,3′:4,5]imidazo[1,2-a]pyrazin-2(1H)-yl)-2-((2-chloro-6-morpholinopyridin-3-yl)oxy)ethanone]",8 nM,
"CC(=O)N1CCn2c(nc3c2C(c2ncccc2F)N(C(=O)COc2ccc(N4CCOCC4)nc2Cl)CC3)C1 (stereo not drawn) [Example 5.10.1, 1-(7-acetyl-1-(3-fluoropyridin-2-yl)-3,4,6,7,8,9-hexahydropyrido[4′,3′:4,5]imidazo[1,2-a]pyrazin-2(1H)-yl)-2-((2-chloro-6-morpholinopyridin-3-yl)oxy)ethanone]",14 nM,
"CCNC(=O)Nc1nc(C2c3c(nc4n3CCN(C(C)=O)C4)CCN2C(=O)COc2ccc(N3CCOCC3)nc2Cl)cs1 (stereo not drawn) [Example 5.11.1, 1-(4-(7-acetyl-2-(2-((2-chloro-6-morpholinopyridin-3-yl)oxy)acetyl)-1,2,3,4,6,7,8,9-octahydropyrido[4′,3′:4,5]imidazo[1,2-a]pyrazin-1-yl)thiazol-2-yl)-3-ethylurea]",100 nM,
"Cc1ccc(C2c3c(nc4n3CCN(C(=O)OC(C)(C)C)C4)CCN2C(=O)COc2ccc(CN3CCOCC3)cc2Cl)c(F)c1 (stereo not drawn) [Example 5.12.1, tert-butyl 2-(2-(2-chloro-4-(morpholinomethyl)phenoxy)acetyl)-1-(2-fluoro-4-methylphenyl)-1,2,3,4,8,9-hexahydropyrido[4′,3′:4,5]imidazo[1,2-a]pyrazine-7(6H)-carboxylate]",310 nM,
"Cc1ccc(C2c3c(nc4n3CCNC4)CCN2C(=O)COc2ccc(CN3CCOCC3)cc2Cl)c(F)c1 (stereo not drawn) [Example 5.12.2, 2-(2-chloro-4-(morpholinomethyl)phenoxy)-1-(1-(2-fluoro-4-methylphenyl)-3,4,6,7,8,9-hexahydropyrido[4′,3′:4,5]imidazo[1,2-a]pyrazin-2(1H)-yl)ethanone]",52 nM,
"CC(=O)N1CCn2c(nc3c2C(c2ccc(C)cc2F)N(C(=O)COc2ccc(CN4CCOCC4)cc2Cl)CC3)C1 (stereo not drawn) [Example 5.12.3, 1-(7-acetyl-1-(2-fluoro-4-methylphenyl)-3,4,6,7,8,9-hexahydropyrido[4′,3′:4,5]imidazo[1,2-a]pyrazin-2(1H)-yl)-2-(2-chloro-4-(morpholinomethyl)phenoxy)ethanone]",15 nM,
"CC(=O)N1CCn2c(nc3c2C(c2sccc2F)N(C(=O)COc2ccc(N4CCOCC4)nc2Cl)CC3)C1 (stereo not drawn) [Example 5.13.1, 1-(7-acetyl-1-(3-fluorothiophen-2-yl)-3,4,6,7,8,9-hexahydropyrido[4′,3′:4,5]imidazo[1,2-a]pyrazin-2(1H)-yl)-2-((2-chloro-6-morpholinopyridin-3-yl)oxy)ethanone]",6 nM,
"CC(=O)N1CCn2c(nc3c2C(c2sccc2F)N(C(=O)COc2ccc(C(=O)N(C)C)nc2Cl)CC3)C1 (stereo not drawn) [Example 5.13.2, 5-(2-(7-acetyl-1-(3-fluorothiophen-2-yl)-3,4,6,7,8,9-hexahydropyrido[4′,3′:4,5]imidazo[1,2-a]pyrazin-2(1H)-yl)-2-oxoethoxy)-6-chloro-N,N-dimethylpicolinamide]",24 nM,
"CC(C)(C)OC(=O)N1CCn2c(nc3c2C(c2cc(C(=O)NC#N)cs2)N(C(=O)COc2ccc(N4CCOCC4)nc2Cl)CC3)C1 (stereo not drawn) [Example 5.14.1, Tert-butyl 2-(2-((2-chloro-6-morpholinopyridin-3-yl)oxy)acetyl)-1-(4-(cyanocarbamoyl)thiophen-2-yl)-1,2,3,4,8,9-hexahydropyrido[4′,3′:4,5]imidazo[1,2-a]pyrazine-7(6H)-carboxylate]",,341 nM
"CC(=O)N1CCn2c(nc3c2C(c2ccc(Cl)cn2)N(C(=O)COc2ccc(N4CCOCC4)nc2Cl)CC3)C1 (stereo not drawn) [Example 5.15.1, 1-(7-acetyl-1-(5-chloropyridin-2-yl)-3,4,6,7,8,9-hexahydropyrido[4′,3′:4,5]imidazo[1,2-a]pyrazin-2(1H)-yl)-2-((2-chloro-6-morpholinopyridin-3-yl)oxy)ethanone]",11 nM,
"CC(=O)N1CCn2c(nc3c2C(c2cc(Cl)ccn2)N(C(=O)COc2ccc(N4CCOCC4)nc2Cl)CC3)C1 (stereo not drawn) [Example 5.16.1, 1-(7-acetyl-1-(4-chloropyridin-2-yl)-3,4,6,7,8,9-hexahydropyrido[4′,3′:4,5]imidazo[1,2-a]pyrazin-2(1H)-yl)-2-((2-chloro-6-morpholinopyridin-3-yl)oxy)ethanone]",48 nM,
"CC(=O)N1CCn2c(nc3c2C(c2sc(C)nc2C)N(C(=O)COc2ccc(-c4ncco4)nc2Cl)CC3)C1 (stereo not drawn) [Example 5.17.1, 1-(7-acetyl-1-(2,4-dimethylthiazol-5-yl)-3,4,6,7,8,9-hexahydropyrido[4′,3′:4,5]imidazo[1,2-a]pyrazin-2(1H)-yl)-2-((2-chloro-6-(oxazol-2-yl)pyridin-3-yl)oxy)ethanone]",27 nM,
